A short description of this data set: gradient 5% acetonitrile 3 min, to 50% in 2 min, to 85% in 15 min, held 3 min, 100 µL/min. The following applies: column: Zorbax Extend-C18 2.1 x 50 mm; eluents: water / acetonitrile, 0.1% formic acid. Summed up: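 Standards, all pure, were combined into mixtures of ~100 molecules and run at 100 μL/min on a Zorbax Extend-C18 column (2.1 × 50 mm, 1.8 μm) with water and acetonitrile, each containing 0.1% formic acid. A coupled quadrupole time-of-flight mass spectrometer operated in positive and negative ionization mode. Retention time values come from computationally picked adduct peaks, each inspected manually.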
Take `COc1cc(Cl)c(NC(=O)C2CC(=O)N(c3cccc(NC(C)=O)c3)C2)c(OC)c1` (stereo not given): the RP-LC retention time turned out to be 711 s.
To `CCCCN1CCN(c2ncccc2-c2nnc(-c3ccc(Cl)cc3)o2)CC1` belongs 743 s.
The value for `CCN1C(=O)COc2ccc(-c3noc(C4CC(=O)N(c5cccc(Cl)c5)C4)n3)cc21` (stereo not given) was 1010 s; that for `CCn1nc(C)c2c(-c3ccccc3)cc(OC(C)C(=O)NCc3ccco3)nc21` (stereo not given) was 782 s.
To `CC(C)C(=O)Nc1ccc2c(c1)N(C(=O)c1cccs1)CCC2` belongs 819 s; to `Cc1c(Cl)ccc2c(=O)c3c([nH]c12)CCN(CC(=O)Nc1cccc(Cl)c1)C3`, 704 s.
Consider `O=C(c1c[nH]c2ccccc12)N1CCCC1c1nc(-c2ccccc2)n[nH]1` (stereo not given), for which the RP-LC retention time was 649 s.
The value for `Clc1cccc(-c2ccc(CNCc3ccco3)o2)c1` was 837 s; that for `Cc1nc(-c2ccncc2)nc2c1CCC(=O)N2CC1COCCO1` (stereo not given) was 591 s; that for `COCc1nc2ccccc2n1CC(=O)NC1CCCCC1` was 642 s.
The value for `CCCCn1c(=O)c2ccccc2n(Cc2nc(-c3cccc(Br)c3)no2)c1=O` was 1280 s.
The value for `Cc1ccc(C(CC(=O)N2CCN(c3ccccn3)CC2)n2cccc2)cc1` (stereo not given) was 995 s; that for `COC(=O)c1ccc2c(=O)n(-c3cc(F)cc(F)c3)c(N3CCN(c4ccccn4)CC3)nc2c1` was 753 s.
Take `CN(CC1CCOC1)C(=O)Nc1ccccc1Cl` (stereo not given): the RP-LC retention time came to 722 s.
In turn, `CCN1CCN(CCCNC(=O)CCCN2C(=O)COc3ccc(C)cc32)CC1` gave an RP-LC retention time of 585 s.
To `CCOc1cccc(-c2noc(Cn3c(=O)n(C(C)C)c(=O)c4ccccc43)n2)c1` belongs 1190 s; to `COc1ccc(Br)cc1CNC(=O)C1CCN(c2ccc3nnc(C)n3n2)CC1`, 797 s.
Molecule `Cc1ccc(NC(=O)C2CCN(S(=O)(=O)c3ccc4c(c3)sc(=O)n4C)CC2)cc1C` showed an RP-LC retention time of 913 s.
The value for `O=C(N[C@H]1C[C@@H]2C[C@H]1CN2S(=O)(=O)c1ccccc1C(F)(F)F)c1ccccc1` was 921 s; that for `Cc1ccc(C)c(NC(=O)N2CCC3(CC2)NC(=O)c2ccc(F)cc2N3C)c1` was 769 s.
The molecule `Cc1cnc(C(=O)N2CCC(c3noc(-c4ccccn4)n3)C2)cn1` (stereo not given) gave an RP-LC retention time of 628 s.
`CCCCNC(=O)C1CCN(c2nc3ccc(-c4cccnc4)nc3s2)CC1` gave an RP-LC retention time of 588 s.
The value for `CS(=O)(=O)N1CCC(C(=O)Nc2nnc(SCc3ccccn3)s2)CC1` was 554 s.
The value for `Cc1ccc(OCC(=O)Nc2nnc(C3CC(=O)N(c4ccccc4)C3)o2)cc1` (stereo not given) was 765 s.
The value for `COc1ccc(-c2nnc(-c3ccc(C)c(S(=O)(=O)NCc4cccnc4)c3)o2)cc1OC` was 660 s; that for `COc1ccc(-c2nc(C)cc(C)c2CNS(=O)(=O)c2cccs2)cc1` was 642 s.
Take `N#Cc1cccc(NC(=O)C2CCN(S(=O)(=O)c3cc(-c4noc(C5CC5)n4)cs3)CC2)c1`: the RP-LC retention time was 994 s.
The value for `CCOC(=O)Nc1ccccc1NC(=O)OCC` was 717 s; that for `O=C1CCc2cc(S(=O)(=O)Nc3ccc(F)c(Cl)c3)cc3c2N1CCC3` was 812 s; that for `Cc1cc(=O)n(CC(=O)Nc2ccccc2F)c(-c2ccccc2)n1` was 1000 s.
Consider `COc1ccc(NS(=O)(=O)c2cc(-c3cc(C(F)(F)F)on3)sc2C)c(OC)c1`, for which the RP-LC retention time turned out to be 1130 s.
On to `Cn1cnc2c(C(=O)Nc3cccc(C(F)(F)F)c3)nn(-c3ccccc3)c2c1=O`, for which the RP-LC retention time worked out at 970 s.
To `COC(=O)CC(=O)Nc1nnc(SCc2nnc(-c3ccccc3C)o2)s1` belongs 758 s.
The value for `O=C(CCCc1nnc2c(=O)n(-c3ccc(Cl)cc3)ccn12)NCCc1c[nH]c2ccccc12` was 744 s; that for `Cc1noc(/C=C/c2ccc(F)cc2F)c1S(=O)(=O)N1CCC(C(=O)Nc2nccs2)CC1` was 1050 s.
To `CC(C)Cn1cc2c3c(cccc31)CN(C(=O)Nc1ccc(F)cc1)CC2` belongs 1070 s; to `O=C(Cn1nc2c3sc(N4CCCCC4)nc3ncn2c1=O)Nc1ccc(Br)cc1`, 848 s.
In the case of `Cc1cccc(NC(=O)NCC(c2cccnc2)c2cn(C)c3ccccc23)c1` (stereo not given), the RP-LC retention time is 723 s.
`O=C(Cc1nnc(-c2cccc(F)c2)o1)Nc1ccccc1` had an RP-LC retention time of 808 s.
To `O=C(Cc1ccc(F)cc1)N1CCN(c2nc(CN3CCOCC3)cs2)CC1` belongs 616 s; to `CC1(C)CC(=O)c2cn(-c3ccccc3)c(=O)c(C(=O)Nc3cccnc3)c2C1`, 700 s; to `CC(C)NC(=O)c1ccc(OCC2CCCN(C(=O)Cc3ccc(Cl)cc3)C2)cc1` (stereo not given), 918 s.
To `Cc1ccc(NC(=O)C2(C)CCCCC(=O)N2)cc1` (stereo not given) belongs 696 s.
The value for `O=C(CCc1ccccc1)Nc1ccc2c(c1)CCCN2C(=O)c1ccco1` was 861 s; that for `O=C(C1CCCO1)N1CC2CN(S(=O)(=O)c3cccc(F)c3)CC(C1)O2` (stereo not given) was 676 s.
In turn, `CN(C)C(=O)c1ccc2c(c1)N(CC(=O)NCCCN1CCCC1=O)C(=O)C1CCCCN21` (stereo not given) registered an RP-LC retention time of 619 s.
`c1ccc2c3c([nH]c2c1)CNCC3` came in with an RP-LC retention time of 703 s.
Molecule `COc1ccc(-c2nc(C)cc(C)c2CNC(=O)c2cccs2)cc1` returned an RP-LC retention time of 610 s.
The value for `CCCNc1nc(N)c2ccccc2n1` was 573 s; that for `Cc1ccccc1CNC(=O)C1(C)Oc2cccnc2NC1=O` (stereo not given) was 702 s.
To `COc1ccc(CCS(=O)(=O)Nc2ccc3c(c2)N(C(=O)C2CCCO2)CC3)cc1` (stereo not given) belongs 762 s.
Turning to `O=C1NCCCCCN(C(=O)Cn2c(=O)oc3ccccc32)[C@@H]2C[C@@H](C(=O)N3CCc4ccccc4C3)C[C@H]12`, the RP-LC retention time was 864 s.
The value for `CC(C)c1ccc(S(=O)(=O)N2CCCC2c2nc(-c3ccccc3)no2)cc1` (stereo not given) was 1250 s; that for `CN(CC(=O)N1CCN(c2ccccc2)CC1)S(=O)(=O)c1c[nH]c(C(=O)N2CCCC2)c1` was 744 s.
The value for `COCC(=O)NC1CCC12CCN(C(=O)NC(C)C)CC2` (stereo not given) was 630 s.
To `N#CC1=CN(c2cccc(Br)c2)c2ccccc2S1(=O)=O` belongs 939 s; to `O=C(c1cccs1)N1CCN(c2cc(-c3ccccc3)[nH]n2)CC1`, 734 s; to `Cc1ccccc1C(=O)Nc1nc(-c2ccc3c(c2)N(C)C(=O)C(C)O3)cs1` (stereo not given), 1010 s.
Turning to `O=C(c1ccc2c(c1)OCO2)N1CCN(c2nnc3ccccn23)CC1`, the RP-LC retention time stood at 616 s.
`COc1cc(NC(=O)NC2CCN(c3ccc(F)cc3)C2=O)cc(OC)c1` (stereo not given) came in with an RP-LC retention time of 769 s.
To `CCCc1noc(-c2ccnc(-n3ncc(C(=O)N4CCN(CC)CC4)c3C)c2)n1` belongs 643 s; to `CN1C(=O)CC2(C)C1=CCc1scnc12` (stereo not given), 636 s; to `O=C(C1CCN(c2ccc(-n3cccn3)nn2)CC1)N1CCN(c2ncccn2)CC1`, 605 s.
To `Cc1nc2nc(-c3ccc(C(C)(C)C)cc3)nn2c(C)c1CC(=O)N1CCCC1` belongs 900 s; to `COc1ccc(-n2ccn3cc(-c4ccc5c(c4)OCO5)nc3c2=O)cc1`, 766 s.
On to `COc1ccc(CC(=O)N2CCC3(C2)C(=O)Nc2ccc(OC)cc23)cc1` (stereo not given), for which the RP-LC retention time was 709 s.
With `O=S(=O)(Nc1cccc(F)c1)c1ccccc1-c1nc(-c2ccccc2)no1`, the RP-LC retention time came to 1170 s.
To `CCOc1ccc(NC(=O)N(C)CCc2noc(C3CCCCC3)n2)cc1` belongs 942 s; to `CCC(=O)N1CCc2c(C(=O)N3CCN(c4ccccc4F)CC3)cccc21`, 872 s.
The value for `CCOc1ccc(CNC(=O)Cc2csc3nc(-c4ccc(C)c(C)c4)cn23)cc1` was 847 s.
The value for `COc1cccc(C2c3c(oc4cc(C)c(C)cc4c3=O)C(=O)N2CCCN2CCOCC2)c1` (stereo not given) was 695 s.
With `CCC1CCCCN1S(=O)(=O)c1cc(-c2nnc(C)o2)co1` (stereo not given), the RP-LC retention time was determined as 857 s.
For the molecule `CNC(=O)c1nsc(C(=O)OC)c1N`, the RP-LC retention time was found to be 677 s.
The molecule `O=C(c1c[nH]c2ncccc12)N1CCCC1` gave an RP-LC retention time of 589 s.
The value for `O=C(CN1CCN(Cc2ccc(F)cc2)C1=O)NCCc1ccccn1` was 552 s.
To `COc1ccc(C2(C(=O)N3CCC4(CC3)N(CC3CC3)C(=O)CS4=O)CC2)cc1` (stereo not given) belongs 677 s.
In turn, `Cn1cc(CCNS(=O)(=O)c2ccc(Br)s2)c2cccnc21` had an RP-LC retention time of 779 s.
`Cc1ccc(Cl)cc1NC(=O)C1CCN(S(=O)(=O)c2cc(C(=O)N(C)C)cs2)CC1` showed an RP-LC retention time of 846 s.
Molecule `Cc1cccc(N2CCN(c3ccc4cc(S(=O)(=O)N5CCCCC5C)ccc4n3)CC2)c1C` (stereo not given) registered an RP-LC retention time of 1330 s.
To `Cc1ccc(C(=O)N2C[C@@H]3C[C@H]2C[C@@H]3NS(=O)(=O)c2ccccc2)cn1` belongs 615 s.
